Reference: US12649980B2, “Three-dimensional surface for protein and small molecule microarrays” (The Johns Hopkins University, priority 2019, dated 2026)

Assays:
GLUT1 = biological target: T1, GLUT1 (Homo sapiens, UniProt P11166); experiment: rapafucin 3D microarray screen with GLUT1-containing cell lysate; type: binding; conditions: signal-to-background ratio, 3D surface, lysate of GLUT1-overexpressing HEK293T; hit if SBR > 3
T1 construct: The full-length human SLC2A1, SLC2A3, and SLC2A4 genes were PCR amplified and inserted into pLenti6M vector 2; expressed in transfected cells
T1 sequence (P11166 1-492): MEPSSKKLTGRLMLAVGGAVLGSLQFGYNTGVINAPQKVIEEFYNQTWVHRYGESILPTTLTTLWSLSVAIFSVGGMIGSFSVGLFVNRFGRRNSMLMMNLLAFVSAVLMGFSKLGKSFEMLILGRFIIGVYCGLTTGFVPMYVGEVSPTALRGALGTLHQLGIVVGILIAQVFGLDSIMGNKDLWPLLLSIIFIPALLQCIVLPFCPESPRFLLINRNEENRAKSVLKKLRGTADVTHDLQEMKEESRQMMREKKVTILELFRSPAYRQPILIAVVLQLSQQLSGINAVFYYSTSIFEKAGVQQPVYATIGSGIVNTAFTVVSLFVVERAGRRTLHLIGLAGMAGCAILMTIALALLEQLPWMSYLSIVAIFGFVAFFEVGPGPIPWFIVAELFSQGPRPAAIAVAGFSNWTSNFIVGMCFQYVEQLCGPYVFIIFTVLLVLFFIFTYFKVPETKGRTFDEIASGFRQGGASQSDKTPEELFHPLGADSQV
Excerpt: Once stock solutions of the rapafucin library were arrayed on the 2D or 3D surface and most of solvent carrier was evaporated, the crosslinking reaction was initiated by irradiating the surfaces with 365-nm wavelength UV light. Kawatani and Osada, Medchemcomm 2014, 5, 277-287. […] To screen for GLUT1-interacting rapafucins, GLUT1 was stably overexpressed in HEK293T cells and generated cell lysates containing detergent-solubilized recombinant GLUT1 (FIG. 10). The GLUT1-containing cell lysate was then incubated on both 2D and 3D rapafucin microarrays. After washing the slides to remove unbound proteins, the bound GLUT1 protein was detected with anti-GLUT1 antibodies, followed by visualization with Cy5-labeled secondary antibodies using a microarray scanner. Rapafucins were scored as positive hits when the corresponding SBR was greater than 3. Based on this criterion, a total of 17 rapafucin hits and one positive control BAY-876, a specific GLUT1 inhibitor, Siebeneicher et al., ChemMedChem 2016, 11, 2261-2271, were identified on the 3D rapafucin microarray. In contrast, only one hit (WL13-F11, also among the 17 hits identified from the 3D rapafucin microarray) was identified on the 2D rapafucin microarray (Table 1, FIG. 11).
The amine substrates (Arrayit, SMM) were immerged in a mixture of 2-bromoisobutyryl bromide (BIBB, 0.1 mM, as initiator) and propionyl bromide (10 mM, as horizontal spacer) with triethylamine (15 mM) in DCM for 4 hours. A degassed polymerization reaction mixture, containing copper (II) chloride dihydrate (CuCl2, 4 mmol), 2,2′-bipyridine (2 mmol), 75 mmol monomers mixture of 2-(dimethylamino)ethyl methacrylate (DMAEMA) and poly(ethylene glycol) methacrylate (PEGMA Mn 360) in 500 mL Milli-Q/MeOH, was mixed with freshly made ascorbic acid (4 mmol). The mixture was applied to 50 slides for 6 hours under the argon atmosphere for the surface-initiated polymerization. A gradient ratio of PEGMA and DMAEMA was set, including 10:0, 8:2, 5:5, 2:8 and 0:10 for an optimization purpose. The terminals of the brushes were further functionalized by N,N′-disuccinimidyl carbonate (DSC, 10 mM) and 4-dimethylaminopyridine (DMAP,10 mM) in DMF overnight to form succinimidyl carbonate intermediate, and, successively, diazirine linker 1 (10 mM) and N,Ndiisopropylethylamine (DIPEA, 50 mM) in DMF for 2 hours to couple the photoaffinity linker in dark at room temperature. At the end, the substrates were immerged in a 50 mM ethanolamine in DMF to block the residual carboxylic moiety. The slides were thoroughly washed by DMF, EtOH and DCM and dried in a fuming cupboard and ready for spotting.
10 mM of rapafucins in DMSO from the library were spotted onto the slides with a high-precision microarrayer (Nanoprint, Arrayit, CA) for a desired pattern in dark, which was loaded with 16 100-μm diameter micro-spotting pins. The pin heads were thoroughly washed and sonicated in ethanol and dried for 4 times under a compassed air between each sample loading. After overnight evaporation, the slides were exposed to 365-nm wavelength UV irradiation for 4 J/cm^2 by CL-1000L UV crosslinker (UVP, CA) for rapafucins covalent immobilization. The slides were ultrasonic cleaned successively in DCM, MeOH and Milli-Q water and stored in a −20° C. freezer.
In the optimization experiments, the slides were incubated with 50 nM purified recombinant FKBP12 for 1 hour, while in the GLUT1 screening, 10 mg/mL of cell lysate containing DDM-solubilized GLUT1 from GLUT1 overexpressed HEK293T was incubated for 1 hour. Successively, primary antibody and CY5 labeled secondary antibody were added for 1 hour. The chips were washed in buffer A for 5 mins 3 times after the sample and antibodies incubation. After centrifugation, the dried chips were scanned by a microarray scanner (Genepix, US) at 635-nm wavelength. The final result was analyzed by GenePix software.

HCC1954 = experiment: [3H]-2DG uptake assay in HCC1954 cells; type: cell-based, human
Method: Hay, Nat. Rev. […] To determine whether RgA could inhibit glucose uptake in cancer cell lines in addition to A549, the impact of RgA on [3H]-2DG uptake in six other cancer cell lines, including HCC1954, MCF-7, PANC10.05, Jurkat T, HeLa, and RKO was measured (FIG. 3A, Table 3).
The inhibitory activity of compounds on glucose transport was analyzed by measuring the cell uptake of [3H]-2DG as previously described. Ulanovskaya et al., Chem. Biol. 2011, 18, 222-230. Briefly, cells were washed twice and incubated in low-glucose medium for 10 min. Cells were added drugs and incubated for another 10 min before adding [3H]-2DG. After 10 min incubation with [3H]-2DG, cells were washed twice and lysed with 0.2 N NaOH plus 0.2% SDS. The cell lysate was transferred to a new tube containing 1 mL of optiphase supermix. Glucose uptake was quantified with a scintillation counter.

3D SBR (GLUT1): 6.5 ± 1.4 | IC50 (HCC1954): 8.3 nM
SMILES: CCC(C)C1C(=O)NCC(=O)N(C)CCC=CC(=O)OCC(C)(C)C(=O)C(=O)N2CCCCC2C(=O)OC(CCc2ccc(OC)c(OC)c2)c2cccc(c2)NC(=O)CCC(=O)N(C)C(CC(C)C)C(=O)NC(Cc2ccccc2)C(=O)N1C (centres unmarked) [JW11-D2, Rapaglutin A]
